Experimental data published in patent US20210255193A1, “LYSINE REACTIVE PROBES AND USES THEREOF” (The Scripps Research Institute, priority 2017, published 2021).

Columns and labels:
Test in all cases: competitive isoTOP-ABPP
Format in all cases: binding
[1] = target: T1, LMNA Prelamin-A/C (Homo sapiens, UniProt P02545); conditions: 50 uM, in vitro; for R value (DMSO/fragment) for probe 1 labeling: P02545_K135; for R value (DMSO/fragment) for probe 1 labeling / isoTOP-ABPP reactivity ratio at lysine P02545_K135: 231 sol; for isoTOP-ABPP ratio (R) at liganded lysine P02545_K135: sol, 231
T1 construct: isoTOP-ABPP experiments performed in cell lysates (in vitro); endogenous in cells; host or cells: MDA-MB-231 soluble lysate
T1 sequence (P02545 1-664): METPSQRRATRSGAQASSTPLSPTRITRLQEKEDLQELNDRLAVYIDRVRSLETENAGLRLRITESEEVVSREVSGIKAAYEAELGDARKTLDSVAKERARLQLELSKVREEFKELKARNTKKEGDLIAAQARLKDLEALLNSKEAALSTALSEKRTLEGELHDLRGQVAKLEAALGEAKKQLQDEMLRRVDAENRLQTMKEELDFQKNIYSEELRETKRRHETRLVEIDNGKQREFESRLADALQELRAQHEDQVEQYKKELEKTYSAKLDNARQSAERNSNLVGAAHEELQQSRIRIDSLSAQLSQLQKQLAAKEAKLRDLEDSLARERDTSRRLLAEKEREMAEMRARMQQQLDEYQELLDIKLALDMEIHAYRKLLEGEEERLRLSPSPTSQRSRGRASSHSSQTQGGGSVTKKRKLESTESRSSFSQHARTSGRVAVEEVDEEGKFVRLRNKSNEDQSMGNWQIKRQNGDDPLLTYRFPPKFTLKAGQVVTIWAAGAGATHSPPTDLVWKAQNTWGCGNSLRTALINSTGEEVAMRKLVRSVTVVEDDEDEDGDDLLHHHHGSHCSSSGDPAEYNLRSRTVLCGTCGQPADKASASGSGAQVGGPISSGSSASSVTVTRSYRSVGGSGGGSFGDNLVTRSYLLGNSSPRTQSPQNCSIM
Outline: (§1)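 Fragments at 50 μM (activated esters) or 100 μM (guanidinylating agents) were incubated with 0.5 ml lysate before probe labeling. After 0.1 mM STP-alkyne for 1 h, samples were clicked to isotopically distinct TEV tags, and R taken as DMSO-over-compound MS1 peak-area ratio.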

[2] = target: T2, NPEPPS Puromycin-sensitive aminopeptidase (Homo sapiens, UniProt P55786); conditions: 50 uM, in vitro; for R value (DMSO/fragment) for probe 1 labeling: P55786_K712; for R value (DMSO/fragment) for probe 1 labeling / isoTOP-ABPP reactivity ratio at lysine P55786_K712: 231 sol; for isoTOP-ABPP ratio (R) at liganded lysine P55786_K712: sol, 231
T2 construct: isoTOP-ABPP experiments performed in cell lysates (in vitro); endogenous in cells; host or cells: soluble proteome of human cancer cell lines (MDA-MB-231, Ramos, Jurkat)
Outline: as §1

[3] = target: T3, TRAP1 Heat shock protein 75 kDa, mitochondrial (Homo sapiens, UniProt Q12931); conditions: 50 uM, in vitro; for R value (DMSO/fragment) for probe 1 labeling: Q12931_K699; for R value (DMSO/fragment) for probe 1 labeling / isoTOP-ABPP reactivity ratio at lysine Q12931_K699: 231 sol; for isoTOP-ABPP ratio (R) at liganded lysine Q12931_K699: sol, 231
T3 construct: isoTOP-ABPP experiments performed in cell lysates (in vitro); endogenous in cells; host or cells: soluble proteome of human cancer cell lines (MDA-MB-231, Ramos, Jurkat)
T3 sequence (Q12931 60-704): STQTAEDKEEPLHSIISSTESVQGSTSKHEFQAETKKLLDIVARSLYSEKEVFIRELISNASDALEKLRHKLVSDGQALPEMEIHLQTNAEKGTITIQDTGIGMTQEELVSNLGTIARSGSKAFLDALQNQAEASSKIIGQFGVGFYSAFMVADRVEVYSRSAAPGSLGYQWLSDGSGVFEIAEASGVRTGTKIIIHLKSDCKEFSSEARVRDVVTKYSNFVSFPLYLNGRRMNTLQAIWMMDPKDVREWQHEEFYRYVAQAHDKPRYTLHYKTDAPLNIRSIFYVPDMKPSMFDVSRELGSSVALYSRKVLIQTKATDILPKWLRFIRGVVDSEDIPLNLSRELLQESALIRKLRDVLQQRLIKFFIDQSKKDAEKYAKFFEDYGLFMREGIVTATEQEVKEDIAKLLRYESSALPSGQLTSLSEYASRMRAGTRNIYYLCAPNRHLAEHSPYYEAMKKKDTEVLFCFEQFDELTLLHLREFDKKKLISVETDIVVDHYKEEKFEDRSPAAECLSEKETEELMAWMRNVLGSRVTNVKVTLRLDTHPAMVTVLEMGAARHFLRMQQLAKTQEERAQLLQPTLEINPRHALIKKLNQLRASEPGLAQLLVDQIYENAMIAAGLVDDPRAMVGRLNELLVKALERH
Outline: as §1

T2 sequence (P55786 whole entry, the tested form may be a part): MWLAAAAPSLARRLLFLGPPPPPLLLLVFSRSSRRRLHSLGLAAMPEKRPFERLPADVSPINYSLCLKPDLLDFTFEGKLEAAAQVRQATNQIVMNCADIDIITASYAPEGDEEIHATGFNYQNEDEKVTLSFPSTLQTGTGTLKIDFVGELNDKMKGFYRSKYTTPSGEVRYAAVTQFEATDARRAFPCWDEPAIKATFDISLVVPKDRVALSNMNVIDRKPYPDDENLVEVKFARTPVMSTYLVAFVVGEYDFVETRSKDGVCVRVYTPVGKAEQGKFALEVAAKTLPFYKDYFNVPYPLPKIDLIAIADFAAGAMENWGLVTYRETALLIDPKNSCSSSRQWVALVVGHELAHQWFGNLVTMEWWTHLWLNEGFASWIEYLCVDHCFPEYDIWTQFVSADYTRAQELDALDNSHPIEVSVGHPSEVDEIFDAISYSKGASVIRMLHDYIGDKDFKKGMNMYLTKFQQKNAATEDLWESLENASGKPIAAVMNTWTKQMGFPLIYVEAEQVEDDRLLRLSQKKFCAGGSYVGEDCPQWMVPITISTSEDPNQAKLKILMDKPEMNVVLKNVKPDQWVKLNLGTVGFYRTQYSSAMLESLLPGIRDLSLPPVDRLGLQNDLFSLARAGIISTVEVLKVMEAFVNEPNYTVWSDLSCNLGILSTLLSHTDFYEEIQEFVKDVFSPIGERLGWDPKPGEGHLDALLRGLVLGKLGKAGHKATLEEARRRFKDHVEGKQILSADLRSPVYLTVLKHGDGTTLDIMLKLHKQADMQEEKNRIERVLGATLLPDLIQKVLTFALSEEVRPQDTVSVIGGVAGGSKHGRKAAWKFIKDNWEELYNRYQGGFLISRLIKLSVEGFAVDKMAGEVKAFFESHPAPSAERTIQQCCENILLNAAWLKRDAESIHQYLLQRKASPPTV

Structure (SMILES) | isoTOP-ABPP reactivity ratio at lysine P55786_K712 [2] | isoTOP-ABPP reactivity ratio at lysine Q12931_K699 [3] | isoTOP-ABPP ratio (R) at liganded lysine P02545_K135 [1] | isoTOP-ABPP ratio (R) at liganded lysine P55786_K712 [2] | isoTOP-ABPP ratio (R) at liganded lysine Q12931_K699 [3] | also measured
O=C(CCc1cn(-c2ccccc2)nc1-c1ccccc1)Oc1c(F)c(F)c(F)c(F)c1F [fragment 19, Pentafluorophenyl 3-(1,3-diphenyl-1H-pyrazol-4-yl)propanoate] | – | – | – | – | – | R value (DMSO/fragment) for probe 1 labeling [1]: 1.1; R value (DMSO/fragment) for probe 1 labeling [2]: 1.0; R value (DMSO/fragment) for probe 1 labeling [3]: 1.2
O=C(Oc1c(F)c(F)c(F)c(F)c1F)C(c1ccccc1)c1ccccc1 [fragment 20, Pentafluorophenyl 2,2-diphenylacetate] | – | – | – | – | – | R value (DMSO/fragment) for probe 1 labeling [1]: 1.0; R value (DMSO/fragment) for probe 1 labeling [2]: 0.9; R value (DMSO/fragment) for probe 1 labeling [3]: 1.0
O=C(Oc1c(F)c(F)c(F)c(F)c1F)c1cc(C(F)(F)F)cc(C(F)(F)F)c1 [fragment 21, Pentafluorophenyl 3,5-bis(trifluoromethyl)benzoate] | – | – | – | – | – | R value (DMSO/fragment) for probe 1 labeling [1]: 1.0; R value (DMSO/fragment) for probe 1 labeling [2]: 0.9; R value (DMSO/fragment) for probe 1 labeling [3]: 0.9
Cn1cc(CC(=O)Oc2c(F)c(F)c(F)c(F)c2F)c2ccccc21 [fragment 22, Pentafluorophenyl 2-(1-methyl-1H-indol-3-yl)acetate] | – | – | – | – | – | R value (DMSO/fragment) for probe 1 labeling [1]: 1.0; R value (DMSO/fragment) for probe 1 labeling [2]: 1.3; R value (DMSO/fragment) for probe 1 labeling [3]: 1.1
COc1cc(CCC(=O)Oc2c(F)c(F)c(F)c(F)c2F)cc(OC)c1OC [fragment 23, Pentafluorophenyl 3-(3,4,5-trimethoxyphenyl)propanoate] | – | – | – | – | – | R value (DMSO/fragment) for probe 1 labeling [1]: 0.9; R value (DMSO/fragment) for probe 1 labeling [2]: 1.2; R value (DMSO/fragment) for probe 1 labeling [3]: 1.0
O=C(Oc1c(F)c(F)c(F)c(F)c1F)C1CCN(C(=O)OCc2ccccc2)CC1 [fragment 24, 1-Benzyl 4-(pentafluorophenyl) piperidine-1,4-dicarboxylate] | 1.0 | 0.9 | – | – | – | –
O=C(Oc1c(F)c(F)c(F)c(F)c1F)c1ccc2ccccc2n1 [fragment 25, Pentafluorophenyl quinoline-2-carboxylate] | 1.1 | 0.9 | – | – | – | isoTOP-ABPP reactivity ratio at lysine P02545_K135 [1]: 0.9
O=C(CCc1coc2cc(F)ccc2c1=O)Oc1c(F)c(F)c(F)c(F)c1F [fragment 26, Pentafluorophenyl 3-(7-fluoro-4-oxo-4H-chromen-3-yl)propanoate] | 1.2 | – | – | – | – | –
O=C(CN1C(=O)c2ccccc2C1=O)Oc1c(F)c(F)c(F)c(F)c1F [fragment 27, Pentafluorophenyl 2-(1,3-dioxoisoindolin-2-yl)acetate] | 1.2 | 0.7 | – | – | – | –
CCn1cc(C(=O)Oc2c(F)c(F)c(F)c(F)c2F)c(=O)c2ccc(C)nc21 [fragment 28, Pentafluorophenyl 1-ethyl-7-methyl-4-oxo-1,4-dihydro-1,8-naphthyridine-3-carboxylate] | 1.0 | 0.9 | – | – | – | –
O=C(CCc1cn(-c2ccccc2)nc1-c1ccccc1)Oc1ccc([N+](=O)[O-])cc1[N+](=O)[O-] [fragment 29, 2,4-Dinitrophenyl 3-(1,3-diphenyl-1H-pyrazol-4-yl)propanoate] | 1.1 | 2.2 | – | – | – | isoTOP-ABPP reactivity ratio at lysine P02545_K135 [1]: 1.0
O=C(Oc1ccc([N+](=O)[O-])cc1[N+](=O)[O-])C(c1ccccc1)c1ccccc1 [fragment 30, 2,4-Dinitrophenyl 2,2-diphenylacetate] | 1.5 | 4.1 | – | – | – | isoTOP-ABPP reactivity ratio at lysine P02545_K135 [1]: 20.0
O=C(Oc1ccc([N+](=O)[O-])cc1[N+](=O)[O-])c1cc(C(F)(F)F)cc(C(F)(F)F)c1 [fragment 31, 2,4-Dinitrophenyl 3,5-bis(trifluoromethyl)benzoate] | 1.1 | 1.0 | – | – | – | isoTOP-ABPP reactivity ratio at lysine P02545_K135 [1]: 1.3
Cn1cc(CC(=O)Oc2ccc([N+](=O)[O-])cc2[N+](=O)[O-])c2ccccc21 [fragment 32, 2,4-Dinitrophenyl 2-(1-methyl-1H-indol-3-yl)acetate] | 1.4 | 2.0 | – | – | – | isoTOP-ABPP reactivity ratio at lysine P02545_K135 [1]: 20.0
COc1cc(CCC(=O)Oc2ccc([N+](=O)[O-])cc2[N+](=O)[O-])cc(OC)c1OC [fragment 33, 2,4-Dinitrophenyl 3-(3,4,5-trimethoxyphenyl)propanoate] | 1.2 | 1.5 | – | – | – | isoTOP-ABPP reactivity ratio at lysine P02545_K135 [1]: 0.7
O=C(Oc1ccc([N+](=O)[O-])cc1[N+](=O)[O-])C1CCN(C(=O)OCc2ccccc2)CC1 [fragment 34, 1-Benzyl 4-(2,4-dinitrophenyl) piperidine-1,4-dicarboxylate] | – | – | 1.2 | 11.0 | 1.8 | –
O=C(Oc1ccc([N+](=O)[O-])cc1[N+](=O)[O-])c1ccc2ccccc2n1 [fragment 35, 2,4-Dinitrophenyl quinoline-2-carboxylate] | – | – | 0.7 | 1.3 | 0.9 | –
O=C(CCc1coc2cc(F)ccc2c1=O)Oc1ccc([N+](=O)[O-])cc1[N+](=O)[O-] [fragment 36, 2,4-Dinitrophenyl 3-(7-fluoro-4-oxo-4H-chromen-3-yl)propanoate] | – | – | 0.8 | 2.7 | 1.7 | –
O=C(Oc1ccc([N+](=O)[O-])cc1[N+](=O)[O-])c1ccc(-c2ccccc2)cc1 [fragment 37, 2,4-Dinitrophenyl [1,1′-biphenyl]-4-carboxylate] | – | – | 0.9 | 0.9 | 0.9 | –
O=C(CC12CC3CC(CC(C3)C1)C2)Oc1ccc([N+](=O)[O-])cc1[N+](=O)[O-] [fragment 38, 2,4-Dinitrophenyl 2-(adamantan-1-yl)acetate] | – | – | 0.8 | 1.0 | 1.4 | –
O=C(Oc1ccc([N+](=O)[O-])cc1[N+](=O)[O-])c1ccc(Oc2ccccc2)cc1 [fragment 39, 2,4-Dinitrophenyl 4-phenoxybenzoate] | – | – | 1.0 | 0.9 | 0.9 | –
O=C(Oc1ccc([N+](=O)[O-])cc1[N+](=O)[O-])c1ccccc1Nc1cccc(C(F)(F)F)c1 [fragment 40, 2,4-Dinitrophenyl 2-((3-(trifluoromethyl)phenyl)amino)benzoate] | – | – | 1.2 | 1.0 | 0.9 | –
CC(C)(C)OC(=O)NCCCC(=O)Oc1ccc([N+](=O)[O-])cc1[N+](=O)[O-] [fragment 41, 2,4-Dinitrophenyl 4-((tert-butoxycarbonyl)amino)butanoate] | – | – | 1.1 | 1.5 | 1.3 | –
